Here are results for 16 compounds from patent EP0550008A2, “Use of N-acyl derivatives of aminoalcohols with polycarboxylic acids for the manufacture of a medicament for the treatment of pathologies relating to mast cells” (LIFEGROUP S.p.A., priority 1991, dated 1993).

For data set [1], the system named is mast cells degranulation. In words: in vivo mast cell degranulation induced by substance P in the auricular pinna, systemic subcutaneous pretreatment. Details: species or system Sprague Dawley rats. The procedure: • 2 weeks old Sprague […] rats, provided by Charles River from Calco, were locally treated by intradermal injection on the auricular pinna with the compounds in question at the dose of 0.5mg/kg, in a buffered aqueous solution at physiological pH. After 10 minutes a local administration, still by intradermal route, followed, of the substance P (10^-4 M), able to induce a mast cells degranulation response. After 30' from the subtance P administration, the animals were sacrificed and the relative tissue samples (pinna) were taken, for an analysis of the morphological aspect of the mast cells residing in the connectival tissues after fixation and coloration with toluidine blue. The inhibition degree in mast cells degranulation in the tissues of the animals treated with the compounds under question, and compared with those of animals treated only with the physiological degranulation factor (substance P) was considered as a parameter for the biological activity. […] The pharmacologic activity of the compounds under question was also verified under conditions of a systemic subcutaneous administration. In this case the animals were firstly treated with 20 mg/kg of the substances under question and after 30 minutes were exposed to the degranulation stimulus with the substance P (10^-6 M) in the auricular pinna. Then we proceeded as previously described. In Tab.2 the obtained results are reported on an average of 500-800 cells. Tab.2

Data set [2] is described as follows: solubility in organic solvents. The data set is classed as physicochemical. The conditions noted are these: organic solvent or mixture.
The next data set in a line: solubility in water. The data set is classed as physicochemical.
The subject of data set [3] is mast cells degranulation. The experiment in a line: in vivo mast cell degranulation induced by substance P in the auricular pinna, intradermal (local) pretreatment. More on the design: species or system Sprague Pawley rats. The conditions noted are these: compound 0.5 mg/kg intradermal on the auricular pinna, substance P (10⁻⁴ M) intradermal after 10 minutes, sacrifice 30' later. The procedure:
• 2 weeks old Sprague Pawley rats, provided by Charles River from Calco, were locally treated by intradermal injection on the auricular pinna with the compounds in question at the dose of 0.5mg/kg, in a buffered aqueous solution at physiological pH. After 10 minutes a local administration, still by intradermal route, followed, of the substance P (10⁻⁴ M), able to induce a mast cells degranulation response. After 30' from the subtance P administration, the animals were sacrificed and the relative tissue samples (pinna) were taken, for an analysis of the morphological aspect of the mast cells residing in the connectival tissues after fixation and coloration with toluidine blue. The inhibition degree in mast cells degranulation in the tissues of the animals treated with the compounds under question, and compared with those of animals treated only with the physiological degranulation factor (substance P) was considered as a parameter for the biological activity.

The subject of data set [4] is Peritoneal mast cells of rat. The experiment in a line: in vitro degranulation of cultured peritoneal mast cells stimulated with substance P. The data set is classed as cell-based. How it is done:
Peritoneal mast cells of rat were taken according to the standard methodology described by Lagunoff (1975, Tech. Biochem. Biophys. Morphol. , 2, pp. 289-305).
The cells were then cultured in MEM which 10% fetal calf serum was added to and then incubated in a Haereus^R incubator for 30 minutes.
The derivatives under question at the concentration of 10⁻⁵ M were added to the incubation medium .
At the end of the incubation the physiological degranulation stimulus represented by the substance P (10⁻⁴) was added.
The cells were then centrifugated in order to remove the supernatant formed by the incubation medium and placed onto the slide after coloration with toluidine blue, for the analysis of the morphological aspect at the optical microcope.
Also under these conditions the parameter to be considered was the percentage of degranulated cells after stimulation with the Substance P.

Where [5] appears, read: compound 20 mg/kg subcutaneous, substance P (10⁻⁶ M) in the auricular pinna after 30 minutes, average of 500-800 cells.
Where [6] appears, read: compound 10⁻⁵ M in the incubation medium, 30 minutes, then substance P (10⁻⁴).

Bounds are passed on as bounds.

One may read the solubility as how much of the substance goes into solution per volume. For the compound `O=C(CC(O)C(=O)NCCO)NCCO` (racemic) [(8), N,N'-bis (2-hydroxyethyl)-(+/-)2-hydroxysuccinimide], the “% of cells undergoing degranulation” value with mast cells degranulation [1] (setting [5]) turned out to be 31%. For the same compound, the solubility (in data set [2] (in DMSO); in the data set “solubility in water”) was over 10000 µg/mL throughout.
Regarding `O=C(/C=C/C(=O)NCCO)NCCO` [(1), N-fumaroylethanolamide], the “% of cells undergoing degranulation” value came out at 28% with mast cells degranulation [1] (setting [5]), 40% in the data set with mast cells degranulation [3] and 35% in data set [4] (setting [6]). The solubility (in data set [2] (in DMSO); in data set [2] (in hot ethanol); in “solubility in water”) was under 20000 µg/mL throughout.
As to `O=C(/C=C/C(=O)N(CCO)CCO)N(CCO)CCO` [(2), N,N,N',N'-tetra (2-hydroxyethyl)-fumaroyl-diamide], the results for the “% of cells undergoing degranulation” value (in the data set with mast cells degranulation [1] (setting [5]); in data set [4] (setting [6])) were 32% and 30%, respectively. For the same compound, the solubility (in data set [2] (in DMSO); in data set [2] (in hot ethanol); in the data set “solubility in water”) was over 10000 µg/mL in each case.
In the case of `O=C(CCCCCCCC(=O)NCCO)NCCO` [(3), N,N'-bis-(2-hydroxyethyl)-nonandiamide], the “% of cells undergoing degranulation” value (with mast cells degranulation [1] (setting [5]); with mast cells degranulation [3]; in data set [4] (setting [6])) was 30% each time. Besides, in data set [2] (solvent not stated), the solubility was over 10000 µg/mL.
With `O=C(CCC(=O)NCCO)NCCO` [(4), N,N'-bis-(2-hydroxyethyl)-succinamide], the “% of cells undergoing degranulation” value with mast cells degranulation [1] (setting [5]) was 32%; in data set [4] (setting [6]), 35%. Also, in data set [2] (in DMSO), the solubility is over 10000 µg/mL.
Take `O=C(NCCO)C(=O)NCCO` [(5), N,N'-bis(2-hydroxyethyl)-oxalyldiamide]: in the data set on mast cells degranulation [1] (setting [5]), the “% of cells undergoing degranulation” value is 45.5%. The solubility (in data set [2] (in DMSO); in “solubility in water”) was over 10000 µg/mL throughout.
As to `O=C(/C=C/CCCCCCCCC(=O)NCCO)NCCO` [(6), N,N'-bis (2-hydroxyethyl)trans-2-dodecendiamide], the “% of cells undergoing degranulation” value in the data set with mast cells degranulation [1] (setting [5]) was 33.6%. The solubility (in data set [2] (in DMSO); in data set [2] (in ethanol); in the data set “solubility in water” (at 95 °C)) was over 10000 µg/mL each time.
For the compound `O=C(CC(=O)NCCO)NCCO` [(7), N,N' -(2-hydroxyethyl)-malondiamide], the “% of cells undergoing degranulation” value in the data set with mast cells degranulation [1] (setting [5]) worked out at 35%. In addition, the solubility was over 5000 µg/mL in data set [2] (in DMSO), over 10000 µg/mL in data set [2] (in ethanol) and over 10000 µg/mL in the data set “solubility in water”.
With `O=C(NCCO)[C@H](O)[C@@H](O)C(=O)NCCO` [(9), (R,R)-(+) 2,3-dihydroxy-N,N'-bis (2-hydroxyethyl)-succinamide], the “% of cells undergoing degranulation” value in the data set with mast cells degranulation [1] (setting [5]) is 32%. Also, the solubility (in data set [2] (in DMSO); in “solubility in water”) was over 10000 µg/mL each time.
With `CC(O)CNC(=O)/C=C/C(=O)NCC(C)O` (stereo not shown) [(10), N,N'-bis (2-hydroxypropyl)-fumaroyldiamide], the “% of cells undergoing degranulation” value with mast cells degranulation [1] (setting [5]) is on record as 38%. The solubility (in data set [2] (in DMSO); in “solubility in water”) was over 10000 µg/mL in each case.
Regarding `O=C(NCCO)c1cc(=O)c2c(OCC(O)COc3cccc4oc(C(=O)NCCO)cc(=O)c34)cccc2o1` [(11), N,N'-bis (2-hydroxyethyl)-cromoglycholyldiamide], the “% of cells undergoing degranulation” value in the data set on mast cells degranulation [1] (setting [5]) was found to be 28.6%. Besides, the solubility (in data set [2] (in DMSO); in the data set “solubility in water”) was over 10000 µg/mL each time.
Take `NC(CC(=O)NCCO)C(=O)NCCO` (stereo not shown) [(12), N,N'-bis (2-hydroxyethyl)-aspartyldiamide]: the “% of cells undergoing degranulation” value in the data set with mast cells degranulation [1] (setting [5]) is listed as 30%. Besides, the solubility (in data set [2] (in DMSO); in the data set “solubility in water”) was over 10000 µg/mL throughout.
With `O=C(NCCO)c1ccccc1C(=O)NCCO` [(13), N,N' -bis (2-hydroxyethyl)-phthaloyldiamide], the “% of cells undergoing degranulation” value with mast cells degranulation [1] (setting [5]) was 35.5%. For the same compound, the solubility (in data set [2] (in ethanol); in the data set “solubility in water”) was over 10000 µg/mL in each case.
Turning to `O=C(/C=C/C=C/C(=O)NCCO)NCCO` [(14), N,N'-bis (2-hydroxyethyl)-trans,trans-muconoyldiamide], the “% of cells undergoing degranulation” value in the data set on mast cells degranulation [1] (setting [5]) was 40.2%. For the same compound, the solubility (in data set [2] (in DMSO); in the data set “solubility in water”) was over 10000 µg/mL throughout.
As for `O=C(CCCC(=O)NCCO)NCCO` [(15), N,N'-bis-(2-hydroxyethyl)-glutaroyldiamide], the “% of cells undergoing degranulation” value with mast cells degranulation [1] (setting [5]) is reported as 30%. In addition, the solubility (in data set [2] (in DMSO); in the data set “solubility in water”) was over 10000 µg/mL each time.
In the case of `CSCC[C@H](NC(=O)[C@H](CC(C)C)NC(=O)CNC(=O)[C@H](Cc1ccccc1)NC(=O)[C@H](Cc1ccccc1)NC(=O)[C@H](CCC(N)=O)NC(=O)[C@H](CCC(N)=O)NC(=O)[C@@H]1CCCN1C(=O)[C@H](CCCCN)NC(=O)[C@@H]1CCCN1C(=O)[C@@H](N)CCCNC(=N)N)C(N)=O` [substance P, reference compound], the “% of cells undergoing degranulation” value was 92% in the data set on mast cells degranulation [1] (substance P (10⁻⁶ M) in the auricular pinna alone, no pretreatment) and 96% in data set [4] (substance P (10⁻⁴) alone).
